{
  "source": "paper PMC7997369",
  "about": "“Assessment of the Multifunctional Behavior of Lupin Peptide P7 and Its Metabolite Using an Integrated Strategy” (Journal of Agricultural and Food Chemistry, 2020)",
  "key": {"[1]": {"test_system": "ACE", "conditions": "cited from earlier work; for in vitro ACE inhibitory activity at 0.5 mg/mL: hempseed hydrolysate peptides", "description": "(§1) Moreover, when orally administered to spontaneously hypertensive rats (SHRs) at a dose of 30 mg/kg of body weight, LTFPG produces a fast and efficient decrease in systolic blood pressure with a maximum of −37 mmHg after 2 h. […] In particular, these phenomena have been invocated to explain the discrepancy observed between in vitro assays and in vivo results. For example, there are many reports in the literature on the ACE inhibitory activity of different food-derived peptides.[32] In all of these studies, the biochemical characterization is carried out using tests on the purified recombinant ACE enzymes from lung ..."}, "[2]": {"test_system": "spontaneously hypertensive rats (SHRs)", "conditions": "cited from earlier work", "description": "as §1"}, "[3]": {"test_system": "differentiated Caco-2 cell monolayers", "test": "Transepithelial transport and metabolism across differentiated Caco-2 cell monolayers", "type": "in vitro ADME, human", "conditions": "AP solutions of differentiated Caco-2 collected after 120 min; untargeted HPLC–Chip–MS/MS; × = detected", "description": "For differentiation, Caco-2 cells were seeded on polycarbonate filters with a 12 mm diameter and 0.4 μm pore diameter (Transwell, Corning, Inc., Lowell, MA, U.S.A.) at a 3.5 × 10^5 cells/cm^2 density in complete medium supplemented with 10% FBS in both AP and BL compartments for 2 days to allow for the formation of a confluent cell monolayer. Starting from day 3 after seeding, cells were transferred to FBS-free medium in both compartments, supplemented with ITS [final concentration of 10 mg/L insulin (I), 5.5 mg/L transferrin (T), and 6.7 μg/L sodium selenite (S), GIBCO–Invitrogen, San Giuliano Milanese, Italy] only in the BL compartment, and allowed to differentiate for 18–21 days with regular medium changes 3 times weekly.[12]\nThe transepithelial electrical resistance (TEER) of differentiated Caco-2 cells was measured at 37 °C using the voltmeter apparatus Millicell (Millipore Co., Billerica, MA, U.S.A.), immediately before and at the end of the transport experiments. In addition, at the end of transport experiments, cells were incubated from the AP side with 1 mM phenol red in phosphate-buffered saline (PBS) containing Ca^2+ (0.9 mM) and Mg^2+ (0.5 mM) for 1 h at 37 °C, to monitor the paracellular permeability of the cell monolayer. The BL solutions were then collected, and NaOH (70 μL, 0.1 N) was added before reading the absorbance at 560 nm by a microplate reader Synergy H1 from Biotek (Winooski, VT, U.S.A.). Phenol red passage was quantified using a standard phenol red curve. Only filters showing TEER values and phenol red passages similar to untreated control cells were considered for peptide transport analysis.\nPrior to experiments, the cell monolayer integrity and differentiation were checked by TEER measurement as described in detail above. Cells were then washed twice, and peptide transportation by intestinal cells was assayed. Transport experiments were performed in transport buffer solution (137 mM NaCl, 5.36 mM KCl, 1.26 mM CaCl2, 1.1 mM MgCl2, and 5.5 mM glucose) following conditions previously described.[13] To reproduce the pH conditions existing in vivo in the small intestinal mucosa, AP solutions were maintained at pH 6.0 (buffered with 10 mM morpholinoethanesulfonic acid) and BL solutions were maintained at pH 7.4 (buffered with 10 mM N-2-hydroxyethylpiperazine-N-4-[…]). Prior to transport experiments, cells were washed twice with 500 μL of PBS containing Ca^2+ and Mg^2+. Peptide transportation by mature Caco-2 cells was assayed by loading the AP compartment with P7 and/or LTFPG (500 μM) in the AP transport solution (500 μL) and the BL compartment with the BL transport solution (700 μL). The plates were incubated at 37 °C, and the BL solutions were collected at different time points (i.e., 15, 30, 60, 90, and 120 min) and replaced with fresh solutions prewarmed at 37 °C. All BL solutions together with the AP solutions collected at the end of the transport experiment were stored at −80 °C prior to analysis. Three independent transport experiments were performed, each in duplicate.\nQuantitative analysis of P7 in the AP and BL samples were carried out by ion trap mass spectrometry (MS) in multiple reaction monitoring (MRM) mode, monitoring two of the most intense diagnostic transitions, after optimization of the acquisition parameters, such as retention time, MS profile, and tandem mass spectrometry (MS/MS) fragmentation spectrum.[14],[15] All further details regarding liquid chromatography–tandem mass spectrometry (LC–MS/MS) operating conditions and method validations are described in the Supporting Information.\nThe metabolic degradation products deriving from the hydrolytic activity of brush border membrane peptidases were investigated by an untargeted approach (for further details, see the Supporting Information). […]"}},
  "data": [
    {"substance": "IPAGV", "values": [
      {"measurement": "in vitro ACE inhibitory activity at 0.5 mg/mL", "setting": "[1]", "value": 60.0, "unit": "%"},
      {"measurement": "reduction of the BP of SHR", "setting": "[2]", "value": "−40.0", "unit": "mmHg"}
    ]},
    {"substance": "TFPGSAED [AP metabolite of P7 produced by Caco-2 cells, attributed to leucine aminopeptidase]", "values": [
      {"measurement": "detected at the AP side, P7 tested within a mixture", "setting": "[3]", "value": "×"}
    ]},
    {"substance": "SVYT", "values": [
      {"measurement": "in vitro ACE inhibitory activity at 0.5 mg/mL", "setting": "[1]", "value": 79.0, "unit": "%"}
    ]},
    {"substance": "FKGRYYP [peptide from meat-derived hydrolysates obtained using thermolysin]", "values": [
      {"measurement": "IC50", "setting": "[1]; peptides from meat-derived thermolysin hydrolysates, read-out: IC50, in vitro ACE activity", "value": 550, "unit": "nM"},
      {"measurement": "effect in vivo on SHRs", "setting": "[2]", "value": "totally ineffective"}
    ]}
  ]
}
